Assay results reported in patent US9023865B2, “Compounds that are ERK inhibitors” (Merck Sharp & Dohme Corp., priority 2011, dated 2015).
pIC50: −log10 of the molar value.

Each compound was assayed against Active Human ERK2 (hERK2) (Homo sapiens (Human), UniProt P28482) (assay: Active Human ERK2 (hERK2) Activity Assay (IMAP-FP)). Conditions: phosphorylated active hERK2, 30 μM ATP; average; read-out: ERK 2 Human average IC50.
Type: biochemical
Experimental: Assays Active Human ERK2 (hERK2) Activity Assay:
Activated ERK2 activity was determined in an IMAP-FP assay (Molecular Devices). […] The final reaction in each well of 25 μL consists of 0.5 nM hERK2, 900 nM unlabeled peptide, 80 nM labeled-peptide, and 30 μM ATP. Phosphorylation reactions were allowed to proceed for 60 minutes and were immediately quenched by the addition of […] IMAP detection beads (1:1000 dilutions) in IMAP binding buffer (Molecular Devices) with 24 mM NaCl. Plates were read on EnVision reader after 60 minutes binding equilibration using Fluorescence Polarization protocol (Perkin Elmer).

Active Human ERK2 (hERK2), sequence (P28482 whole entry): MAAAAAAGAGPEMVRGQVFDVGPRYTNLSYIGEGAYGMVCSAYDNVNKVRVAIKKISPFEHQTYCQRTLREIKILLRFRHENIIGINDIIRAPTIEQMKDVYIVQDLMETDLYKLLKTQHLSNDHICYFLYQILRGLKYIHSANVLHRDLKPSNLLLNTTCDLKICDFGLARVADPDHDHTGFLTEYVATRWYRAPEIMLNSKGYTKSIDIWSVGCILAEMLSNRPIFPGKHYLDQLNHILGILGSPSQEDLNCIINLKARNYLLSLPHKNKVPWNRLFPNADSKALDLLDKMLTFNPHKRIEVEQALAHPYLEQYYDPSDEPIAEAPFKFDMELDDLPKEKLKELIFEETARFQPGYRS

SMILES | pIC50
C[C@@H](NC(=O)Nc1cc2[nH]nc(C3CC3(F)F)c2cn1)c1ccc(F)cc1 (stereo partly drawn) [Example 165] | 8.05
Cc1cc(-c2n[nH]c3cc(NC(=O)NC4(c5ccc(Cl)cc5)CC4)ncc23)ccn1 [Example 85, 1-[1-(4-chlorophenyl)cyclopropyl]-3-[3-(2-methylpyridin-4-yl)-1H-pyrazolo[4,3-c]pyridin-6-yl]urea] | 7.53
Cc1cc(-c2n[nH]c3cc(NC(=O)N[C@@H]4CCN(CC(F)(F)F)C4)ncc23)ccn1 [Example 326] | 8.45
Cc1cc(-c2n[nH]c3c(F)c(NC(=O)NC(C)c4ccccn4)ncc23)ccn1 (stereo not drawn) [Example 225] | 8.61
Cc1cc(-c2n[nH]c3cc(NC(=O)NC4CCCOc5ccccc54)ncc23)no1 (stereo not drawn) [Example 689] | 8.29
Cc1cc(-c2n[nH]c3cc(NC(=O)N[C@H](CO)c4ccc(F)cc4)ncc23)ccn1 [Example 346] | 7.05
COc1ccc(CNC(=O)Nc2cc3[nH]nc(-c4ccc(F)cc4)c3cn2)cc1OC [Example 33, 1-(3,4-dimethoxybenzyl)-3-(3-(4-fluorophenyl)-1H-pyrazolo[4,3-c]pyridin-6-yl)urea] | 7.82
Cc1cc(-c2n[nH]c3cc(NC(=O)NCc4ccc(F)cn4)ncc23)ccn1 [Example 516] | 8.63
CNC1(CNC(=O)Nc2cc3[nH]nc(-c4ccnc(C)c4)c3cn2)CCOC1 (stereo not drawn) [Example 197] | 7.27
CCNC(=O)Nc1cc2[nH]nc(C3CC3)c2cn1 [Example 157] | 6.60
COc1cncc(-c2n[nH]c3cc(NC(=O)N[C@H](C)c4ccc(F)cc4)ncc23)c1 [Example 253] | 8.50
COCCN(C)c1ncc(-c2n[nH]c3cc(NC(=O)N[C@H](C)c4ccccc4)ncc23)cn1 [Example 293] | 7.61
Cc1cc(-c2n[nH]c3cc(NC(=O)NCc4nc(C)cs4)ncc23)ccn1 [Example 477] | 8.58
Cc1cc(-c2n[nH]c3cc(NC(=O)N[C@@H](C)c4ccc(C#N)cc4)ncc23)ccn1 [Example 233] | 7.37
Cc1cc(-c2n[nH]c3cc(NC(=O)NCC4CCO4)ncc23)ccn1 (stereo not drawn) [Example 484] | 6.42
C[C@@H](NC(=O)Nc1cc2[nH]nc(C(=O)NCC3CCCC(O)C3)c2cn1)c1ccccc1 (stereo partly drawn) [Example 132] | 8.50
Cc1cc(-c2n[nH]c3cc(NC(=O)NC4CNC4)ncc23)ccn1 [Example 39, 1-azetidin-3-yl-3-[3-(2-methylpyridin-4-yl)-1H-pyrazolo[4,3-c]pyridin-6-yl]urea] | 7.22
CCOC(=O)CCc1n[nH]c2cc(NC(=O)NCc3ccccc3)ncc12 [Example 173, Ethyl 3-(6-(3-benzylureido)-1H-pyrazolo[4,3-c]pyridin-3-yl)propanoate] | 7.40
Cc1cc(-c2n[nH]c3cc(NC(=O)NC4CCOc5ccccc54)ncc23)ccn1 (stereo not drawn) [Example 532] | 8.45
Cc1cc(-c2n[nH]c3cc(NC(=O)NCC4CC4)ncc23)ccn1 [Example 35, 1-(cyclopropylmethyl)-3-[3-(2-methylpyridin-4-yl)-1H-pyrazolo[4,3-c]pyridin-6-yl]urea] | 8.68
Cc1cc(-c2n[nH]c3cc(NC(=O)N[C@@H]4CNC[C@H]4F)ncc23)ccn1 [Example 325] | 8.40
CC[C@H](CO)NC(=O)Nc1cc2[nH]nc(-c3ccnc(C)c3)c2cn1 [Example 204] | 7.62

SMILES | pIC50
Cc1cc(-c2n[nH]c3cc(NC(=O)N[C@@H]4CN(C)C[C@H]4F)ncc23)ccn1 [Example 329, 1-((3R,4R)-4-fluoro-1-methylpyrrolidin-3-yl)-3-(3-(2-methylpyridin-4-yl)-1H-pyrazolo[4,3-c]pyridin-6-yl)urea] | 7.25
Cc1cc(-c2n[nH]c3cc(NC(=O)NCc4ccc(F)cc4C(F)(F)F)ncc23)ccn1 [Example 512] | 8.53
Cc1cc(-c2n[nH]c3cc(NC(=O)NCC4CCCO4)ncc23)ccn1 (stereo not drawn) [Example 458] | 8.07
CCCNC(=O)Nc1cc2[nH]nc(-c3ccnc(C)c3)c2cn1 [Example 241] | 8.56
CC1=NOC(C)(CNC(=O)Nc2cc3[nH]nc(-c4ccnc(C)c4)c3cn2)C1 (stereo not drawn) [Example 192] | 7.66
Cc1cc(-c2n[nH]c3cc(NC(=O)NCc4cccc5ccccc45)ncc23)ccn1 [Example 32, 1-[3-(2-methylpyridin-4-yl)-1H-pyrazolo[4,3-c]pyridin-6-yl]-3-(naphthalen-1-ylmethyl)urea] | 8.41
Cc1cc(-c2n[nH]c3cc(NC(=O)N[C@H]4CCOC4=O)ncc23)ccn1 [Example 456] | 6.60
Cc1cc(-c2n[nH]c3cc(NC(=O)NCC4(O)CCN(C)CC4)ncc23)ccn1 [Example 388] | 8.18
Cc1cc(-c2n[nH]c3cc(NC(=O)N[C@H](C)C4CCC4)ncc23)ccn1 [Example 595] | 8.46
Cc1cc(-c2n[nH]c3cc(NC(=O)NCc4cccc(-c5ccccc5)c4)ncc23)ccn1 [Example 333] | 8.47
CCCC(=O)c1n[nH]c2cc(NC(=O)N[C@H](COC)c3ccccc3)ncc12 [Example 684] | 7.57
COCC(NC(=O)Nc1cc2[nH]nc(-c3ccnc(C)c3)c2cn1)c1ccccn1 (stereo not drawn) [Example 348] | 8.66
Cc1cc(-c2n[nH]c3cc(NC(=O)NC4CCCC(Oc5cccc(F)c5)C4)ncc23)ccn1 (stereo not drawn) [Example 657] | 8.33
Cc1ccc(C2(NC(=O)Nc3cc4[nH]nc(-c5ccnc(C)c5)c4cn3)CC2)cc1 [Example 342] | 7.39
C[C@@H](NC(=O)Nc1cc2[nH]nc(-c3ccc(-n4nccn4)cc3)c2cn1)c1ccc(F)cc1 [Example 247] | 7.35
COc1ccc(C2(NC(=O)Nc3cc4[nH]nc(-c5ccnc(C)c5)c4cn3)CC2)cc1 [Example 359] | 8.03
COc1ccc(-c2n[nH]c3cc(NC(=O)NCc4ccc(F)cc4)ncc23)cc1 [Example 677] | 8.44
COC[C@@H](NC(=O)Nc1cc2[nH]nc(-c3ccc(-n4ccnn4)cc3)c2cn1)c1ccc(F)cc1 [Example 307] | 8.76
Cc1cc(-c2n[nH]c3cc(NC(=O)NC4CCCC(Oc5cccc(F)c5)C4)ncc23)ccn1 (stereo not drawn) [Example 658] | 7.17
C[C@@H](NC(=O)Nc1cc2[nH]nc(-c3cnc(-n4cccn4)nc3)c2cn1)c1ccccc1 [Example 291] | 8.35
CC(F)(F)c1n[nH]c2cc(NC(=O)NCc3ccc(F)cc3)ncc12 [Example 668] | 6.19
CO[C@H]1CN(C(=O)c2n[nH]c3cc(NC(=O)N[C@H](C)c4ccccc4)ncc23)C[C@@H]1O [Example 130] | 5.71

Compounds with a higher pIC50, results first:

pIC50 | SMILES
9.21 | CCOCCNC(=O)Nc1cc2[nH]nc(-c3ccc(F)cc3)c2cn1 [Example 616]
9.29 | Cc1cc(-c2n[nH]c3c(F)c(NC(=O)N[C@H](C)c4ccc(Cl)cc4)ncc23)ccn1 [Example 534]
8.93 | COC[C@@H](NC(=O)Nc1cc2[nH]nc(-c3ccnc(N4CCOCC4)c3)c2cn1)c1ccc(F)cc1 [Example 298]
9.06 | Cc1cc(-c2n[nH]c3cc(NC(=O)NC4CCc5cccnc5C4)ncc23)ccn1 (stereo not drawn) [Example 505]
8.78 | NC(=O)Nc1cc2[nH]nc(-c3ccc(F)cc3)c2cn1 [Example 34, 1-(3-(4-fluorophenyl)-1H-pyrazolo[4,3-c]pyridin-6-yl)urea]
9.80 | Cc1cc(-c2n[nH]c3cc(NC(=O)NCc4cccc(S(C)(=O)=O)c4)ncc23)ccn1 [Example 619]
8.92 | Cc1cc(-c2n[nH]c3cc(NC(=O)N[C@H](C)C4CCCCC4)ncc23)ccn1 [Example 575]
9.32 | Cc1cc(-c2n[nH]c3cc(NC(=O)NC(CF)c4ccccc4)ncc23)ccn1 (stereo not drawn) [Example 354]
9.03 | COc1cc(-c2n[nH]c3cc(NC(=O)N[C@H](C)c4ccccc4)ncc23)ccn1 [Example 661]
8.80 | Cc1cc(-c2n[nH]c3cc(NC(=O)NCC4(C)CCCO4)ncc23)ccn1 (stereo not drawn) [Example 463]
9.25 | C[C@@H](NC(=O)Nc1cc2[nH]nc(-c3ccc4nn(C)cc4c3)c2cn1)c1ccc(Cl)cc1 [Example 65, 1-[(1R)-1-(4-chlorophenyl)ethyl]-3-[3-(2-methyl-2H-indazol-5-yl)-1H-pyrazolo[4,3-c]pyridin-6-yl]urea]
9.32 | COC[C@@H](NC(=O)Nc1cc2[nH]nc(-c3ccc4cn(C)nc4c3)c2cn1)c1ccccc1 [Example 614]
8.93 | CN1CC[C@H](CNC(=O)Nc2cc3[nH]nc(-c4ccc(F)cc4)c3cn2)C1 [Example 322]
8.88 | Cc1cc(-c2n[nH]c3cc(NC(=O)NCc4cccc(-c5ncc[nH]5)c4)ncc23)ccn1 [Example 372]
9.07 | C[C@@H](NC(=O)Nc1cc2[nH]nc(-c3ccc(F)cc3)c2cn1)c1ccccc1 [Example 30, 1-[3-(4-fluorophenyl)-1H-pyrazolo[4,3-c]pyridin-6-yl]-3-[(1R)-1-phenylethyl]urea]
8.79 | Cc1cc(-c2n[nH]c3cc(NC(=O)NCCOc4ccccc4)ncc23)ccn1 [Example 453]
8.99 | Cc1cc(-c2n[nH]c3cc(NC(=O)NC(CO)c4cccnc4)ncc23)ccn1 (stereo not drawn) [Example 336]
8.87 | CCC(NC(=O)Nc1cc2[nH]nc(-c3ccnc(C)c3)c2cn1)c1ccccn1 (stereo not drawn) [Example 347]
9.11 | COC[C@@H](NC(=O)Nc1cc2[nH]nc(-c3ccc(F)cc3)c2cn1)c1ccccn1 [Example 500]
9.52 | C[C@@H](NC(=O)Nc1cc2[nH]nc(-c3ccc(=O)[nH]c3)c2cn1)c1ccc(F)cc1 [Example 282]
9.53 | COC[C@@H](NC(=O)Nc1cc2[nH]nc(-c3ccc4nn(C)cc4c3)c2cn1)c1ccccc1 [Example 613]
9.32 | Cc1cc(-c2n[nH]c3cc(NC(=O)NCCc4nc5ccccc5[nH]4)ncc23)ccn1 [Example 377]

Same assay, conditions: read-out: AERK2 IC50 (Active human ERK2 Activity Assay)

pIC50 | SMILES
8.77 to 9.70 | NC(=O)Nc1cc2[nH]nc(-c3ccc(F)cc3)c2cn1 [Example 34, 1-(3-(4-fluorophenyl)-1H-pyrazolo[4,3-c]pyridin-6-yl)urea]
8.77 to 9.70 | C[C@@H](NC(=O)Nc1cc2[nH]nc(-c3ccc4nn(C)cc4c3)c2cn1)c1ccc(Cl)cc1 [Example 65, 1-[(1R)-1-(4-chlorophenyl)ethyl]-3-[3-(2-methyl-2H-indazol-5-yl)-1H-pyrazolo[4,3-c]pyridin-6-yl]urea]
8.77 to 9.70 | C[C@@H](NC(=O)Nc1cc2[nH]nc(-c3ccc(F)cc3)c2cn1)c1ccccc1 [Example 30, 1-[3-(4-fluorophenyl)-1H-pyrazolo[4,3-c]pyridin-6-yl]-3-[(1R)-1-phenylethyl]urea]
